Paper PMC9346611, “Impact of an Adenosine A2A Receptor Agonist and Antagonist on Binding of the Dopamine D2 Receptor Ligand [^11C]raclopride in the Rodent Striatum” (Molecular Pharmaceutics, 2022)
pKd: −log10 of the molar value. Like-named read-outs stand apart in the source and are kept apart here. Marks after values point to notes of the source that are not given here.

Columns and labels:
[1] = Heart rate monitoring with pulse oximeters during PET scan; format: in vivo; details: 1 mg/kg, persisted throughout the scan
dopamine D2 receptor = details: 1 mg/kg
Experimental: Pretreatment of animals with a high dose of a specific (nonradioactive) receptor ligand is the standard method used in PET imaging to assess whether a PET tracer binds to its intended target. […] Only one PET scan was made in animals subjected to arterial blood sampling.
Blood samples with a volume of 0.10–0.13 mL were drawn from the femoral artery at 10, 20, 30, 40, 50, 60, and 90 s and 2, 3, 5, 7.5, 10, 15, 30, and 60 min after tracer administration. After the collection of each sample, an equal volume of saline with 1% heparin was infused into the artery to compensate for the blood volume loss. Larger blood samples (0.8–1 mL) were drawn at 5, 10, 30, and 60 min for [^11C]raclopride metabolite analysis. From each blood sample, a plasma sample was obtained by the centrifugation of whole blood for 5 min at 3000 g.

dopamine D2R = test system: dopamine D2R; set-up: method as in PMID 1678519; details: rat striatal membrane preparations; cited from earlier work
human D2R = test system: human D2R; set-up: method as in PMID 8982704, PMID 10617149; details: SH-SY5Y cells; cited from earlier work
D2R [2] = details: CHO cells co-transfected with A2AR and D2R; cited from earlier work
D2R [3] = test system: D2R; set-up: method as in PMID 26100888; details: transiently transfected CHO cells; cited from earlier work
D2R [4] = test system: D2R; set-up: method as in PMID 11435907; details: rat brain slices, striatal area; cited from earlier work
D2R [5] = test system: D2R; set-up: method as in PMID 11435907; details: human brain slices, striatal area; cited from earlier work
dopamine release [6] = test system: dopamine release; set-up: method as in PMID 10502311; details: low doses 0.01–1 μM; cited from earlier work
dopamine release [7] = test system: dopamine release; set-up: method as in PMID 15525341; details: locally administered 3, 10, 50, and 100 μM; cited from earlier work
[8] = cited from earlier work
D2R/D3R = test system: D2R/D3R; set-up: method as in PMID 25871974; details: human, oral 300 mg; cited from earlier work
[9] = set-up: method as in PMID 1684818; details: cited from earlier work
dopamine D2/D3 receptors = molecular target: dopamine D2/D3 receptors; set-up: method as in PMID 2528555; details: cited from earlier work

**Q.** With CCNC(=O)[C@H]1O[C@@H](n2cnc3c(N)nc(NCCc4ccc(CCC(=O)O)cc4)nc32)[C@H](O)[C@@H]1O [CGS21680] as the compound, how does the “heart rate, reduction in some animals down to” value [1] read?
**A.** 94 bpm

**Q.** What about the “k3, accumbens (2TCM)” value (dopamine D2 receptor) of the same compound?
**A.** 0.012 ± 0.006*** min^–1

**Q.** What about the “k3, caudate-putamen (2TCM)” value (dopamine D2 receptor) of the same compound?
**A.** 0.034 ± 0.014*** min^–1

**Q.** And the “k3, cerebellum (2TCM)” value (dopamine D2 receptor)?
**A.** 0.028 ± 0.012*** min^–1

**Q.** And the “k3, globus pallidus (2TCM)” value (dopamine D2 receptor)?
**A.** 0.029 ± 0.017*** min^–1

**Q.** And the “k3, striatum (2TCM)” value (dopamine D2 receptor)?
**A.** 0.033 ± 0.013*** min^–1

**Q.** What about the “k3/k4, accumbens (2TCM)” value (dopamine D2 receptor) of the same compound?
**A.** 0.87 ± 0.20

**Q.** And the “k3/k4, caudate-putamen (2TCM)” value (dopamine D2 receptor)?
**A.** 1.28 ± 0.35

**Q.** And the “k3/k4, cerebellum (2TCM)” value (dopamine D2 receptor)?
**A.** 1.19 ± 0.32

**Q.** And the “k3/k4, globus pallidus (2TCM)” value (dopamine D2 receptor)?
**A.** 1.63 ± 3.6

**Q.** And the “k4, accumbens (2TCM)” value (dopamine D2 receptor)?
**A.** 0.015 ± 0.008*** min^–1

**Q.** And the “k4, caudate-putamen (2TCM)” value (dopamine D2 receptor)?
**A.** 0.026 ± 0.009** min^–1

**Q.** And the “k4, cerebellum (2TCM)” value (dopamine D2 receptor)?
**A.** 0.023 ± 0.010** min^–1

**Q.** And the “k4, globus pallidus (2TCM)” value (dopamine D2 receptor)?
**A.** 0.022 ± 0.021** min^–1

**Q.** What about the “k4, striatum (2TCM)” value (dopamine D2 receptor) of the same compound?
**A.** 0.026 ± 0.009** min^–1

**Q.** And the “decrease of affinity of dopamine D2R for agonist L-(−)-[^3H]NPA” value (dopamine D2R)?
**A.** 40%

**Q.** What about the “change of affinity of D2R to agonists” value (human D2R) of the same compound?
**A.** two- to threefold decreased

**Q.** And the “change of D2R numbers” value (D2R [2])?
**A.** without any change

**Q.** What about the “change of affinity of D2R for dopamine” value (D2R [2]) of the same compound?
**A.** three- to fourfold decrease

**Q.** And the “affinity of D2R for radioligands [^3H]quinpirole and [^3H]raclopride” value (D2R [3])?
**A.** reduces the affinity

**Q.** What about the “IC50 values of competition between [^125I]iodosulpiride and dopamine” value (D2R [4]) of the same compound?
**A.** significant increase

**Q.** And the “IC50 values of competition between [^125I]iodosulpiride and dopamine” value (D2R [5])?
**A.** significant increase

**Q.** What about the “electrically evoked dopamine release” value (dopamine release [6]) of the same compound?
**A.** inhibit

**Q.** What about the “dopamine release in entire striatum and shell of nucleus accumbens” value (dopamine release [7]) of the same compound?
**A.** increase

**Q.** For CCn1c(=O)c2c(nc(/C=C/c3ccc(OC)c(OC)c3)n2C)n(CC)c1=O [KW6002, istradefylline], which “k3, accumbens (2TCM)” value (dopamine D2 receptor) is on record?
**A.** 0.035 ± 0.015 min^–1

**Q.** What about the “k3, caudate-putamen (2TCM)” value (dopamine D2 receptor) of the same compound?
**A.** 0.086 ± 0.027** min^–1

**Q.** And the “k3, cerebellum (2TCM)” value (dopamine D2 receptor)?
**A.** 0.072 ± 0.028 min^–1

**Q.** And the “k3, globus pallidus (2TCM)” value (dopamine D2 receptor)?
**A.** 0.087 ± 0.028* min^–1

**Q.** And the “k3, striatum (2TCM)” value (dopamine D2 receptor)?
**A.** 0.085 ± 0.027** min^–1

**Q.** And the “k3/k4, accumbens (2TCM)” value (dopamine D2 receptor)?
**A.** 0.91 ± 0.27

**Q.** And the “k3/k4, caudate-putamen (2TCM)” value (dopamine D2 receptor)?
**A.** 2.02 ± 0.52

**Q.** What about the “k3/k4, cerebellum (2TCM)” value (dopamine D2 receptor) of the same compound?
**A.** 1.75 ± 0.52

**Q.** And the “k3/k4, globus pallidus (2TCM)” value (dopamine D2 receptor)?
**A.** 1.86 ± 0.54

**Q.** What about the “k3/k4, striatum (2TCM)” value (dopamine D2 receptor) of the same compound?
**A.** 2.00 ± 0.53

**Q.** And the “k4, accumbens (2TCM)” value (dopamine D2 receptor)?
**A.** 0.039 ± 0.013 min^–1

**Q.** And the “k4, caudate-putamen (2TCM)” value (dopamine D2 receptor)?
**A.** 0.043 ± 0.012 min^–1

**Q.** What about the “k4, cerebellum (2TCM)” value (dopamine D2 receptor) of the same compound?
**A.** 0.041 ± 0.011 min^–1

**Q.** What about the “k4, globus pallidus (2TCM)” value (dopamine D2 receptor) of the same compound?
**A.** 0.048 ± 0.013 min^–1

**Q.** What about the “k4, striatum (2TCM)” value (dopamine D2 receptor) of the same compound?
**A.** 0.043 ± 0.011 min^–1

**Q.** And the peripheral effects ([8]; rat, in vivo)?
**A.** does not have potent peripheral effects

**Q.** What about the “tolerability after intraperitoneal administration” value ([8]; rats, doses up to 3 mg/kg) of the same compound?
**A.** well tolerated

**Q.** With Cn1c(=O)c2c(ncn2C)n(C)c1=O [caffeine] as the compound, how does the “affinity of D2R for radioligands [^3H]quinpirole and [^3H]raclopride” value (D2R [3]) read?
**A.** reduces the affinity

**Q.** What about the “increase of D2R/D3R availability in putamen and ventral striatum” value (D2R/D3R) of the same compound?
**A.** 5–6%

**Q.** What does the source list for CCNC(=O)[C@H]1O[C@@H](n2cnc3c(N)ncnc32)[C@H](O)[C@@H]1O [NECA, 5’-N-ethylcarboxamide adenosine]?
**A.** effect on heart rate, bolus of low doses [9]: tachycardia; effect on heart rate, high dose ([9]; total dose of 3 mg/kg infused over 60 min): rapid reduction in heart rate

**Q.** Which results are given for CCN1CCC[C@H]1CNC(=O)c1c(O)c(Cl)cc(Cl)c1OC (racemic) [[^11C]raclopride]?
**A.** pKd (dopamine D2/D3 receptors; read-out: affinity (Kd) by equilibrium analysis): 8.00; pKd (dopamine D2/D3 receptors; read-out: equilibrium dissociation constant KdVR by compartmental modeling): 8.21
